Data taken from publication PMC6522510 (Nature Communications, 2019).

Experiments:
Parameters in all cases: species or system AML cell lines (8); Primary HTS, single concentration about 10 uM, Cell Titer Glo viability; log10 luminescence, per cent inhibition relative to cycloheximide control
Settings in all cases: 72 h, relative to cycloheximide control, log10 luminescence; inhibitor
[1] = test system: MOLM-13
[2] = test system: M07e
[3] = test system: MV4-11
[4] = test system: ML-2
[5] = test system: U937
[6] = test system: CHRF288-11
[7] = test system: CMS
[8] = test system: CMK

## Cc1ccc2c(-c3ccnc(Nc4ccc5c(c4)OCCO5)n3)c(-c3ccc(C(F)(F)F)cc3)nn2n1 [SJ000573347-1, U19201/9/2]
[1]
  MOLM-13 %inh: 1.079%
[2]
  M07e %inh: -1.129%
[3]
  MV4-11 %inh: -1.366%
[4]
  ML-2 %inh: -1.284%
[5]
  U937 %inh: 1.52%
[6]
  CHRF288-11 %inh: 4.555%
[7]
  CMS %inh: -0.8147%
[8]
  CMK %inh: -1.247%

## FC(F)(F)CNc1nccc(-c2cnn3ncccc23)n1 [SJ000573348-1, U14929/198/1]
[1]
  MOLM-13 %inh: 10.23%
[2]
  M07e %inh: 2.938%
[3]
  MV4-11 %inh: 26.7%
[4]
  ML-2 %inh: 3.221%
[5]
  U937 %inh: 21.18%
[6]
  CHRF288-11 %inh: 8.25%
[7]
  CMS %inh: 9.976%
[8]
  CMK %inh: 5.414%

## NC(=O)c1ccc2c(-c3ccnc(NCCCO)n3)c(-c3ccc(F)cc3)nn2c1 [SJ000573349-1, U15445/74/1]
[1]
  MOLM-13 %inh: 4.269%
[2]
  M07e %inh: 8.993%
[3]
  MV4-11 %inh: 0.006279%
[4]
  ML-2 %inh: 0.07673%
[5]
  U937 %inh: 3.919%
[6]
  CHRF288-11 %inh: 6.72%
[7]
  CMS %inh: -1.938%
[8]
  CMK %inh: 3.481%

## CC(=O)Nc1cccc(C#Cc2cncnc2Nc2ccc(OCc3cccc(F)c3)c(Cl)c2)n1 [SJ000573352-1, U17741/29/4]
[1]
  MOLM-13 %inh: 1.614%
[2]
  M07e %inh: -1.039%
[3]
  MV4-11 %inh: 2.175%
[4]
  ML-2 %inh: -1.648%
[5]
  U937 %inh: 0.4059%
[6]
  CHRF288-11 %inh: -2.536%
[7]
  CMS %inh: -3.127%
[8]
  CMK %inh: 2.98%

## CCc1ccc(Oc2nccc(-c3c(-c4ccc(F)cc4)ncn3C3CCNCC3)n2)cc1 [SJ000573353-1, JB42215-197B1]
[1]
  MOLM-13 %inh: 6.147%
[2]
  M07e %inh: 7.09%
[3]
  MV4-11 %inh: 7.571%
[4]
  ML-2 %inh: 3.582%
[5]
  U937 %inh: 8.087%
[6]
  CHRF288-11 %inh: 58.08%
[7]
  CMS %inh: 2.88%
[8]
  CMK %inh: 9.775%

## Cc1cc(-c2ccccn2)cc(C)c1/C=C/c1cncc(-c2nn[nH]n2)c1 [SJ000573354-1, U12068/128/1]
[1]
  MOLM-13 %inh: 1.519%
[2]
  M07e %inh: -1.071%
[3]
  MV4-11 %inh: -0.7703%
[4]
  ML-2 %inh: -0.7476%
[5]
  U937 %inh: 1.124%
[6]
  CHRF288-11 %inh: -4.309%
[7]
  CMS %inh: -3.491%
[8]
  CMK %inh: 0.3268%

## Nc1nonc1-c1nc2cnccc2n1C1CCCCC1 [SJ000573355-1, SD100950-004A1]
[1]
  MOLM-13 %inh: 7.234%
[2]
  M07e %inh: -4.008%
[3]
  MV4-11 %inh: 40.98%
[4]
  ML-2 %inh: 31.12%
[5]
  U937 %inh: 17.92%
[6]
  CHRF288-11 %inh: 15.53%
[7]
  CMS %inh: 13.87%
[8]
  CMK %inh: 8.293%

## O=C1Nc2ccccc2/C1=C/Nc1ccc2[nH]c(=O)[nH]c2c1 [SJ000573356-1, U7003/61/1]
[1]
  MOLM-13 %inh: 61.37%
[2]
  M07e %inh: 4.187%
[3]
  MV4-11 %inh: 43.08%
[4]
  ML-2 %inh: 0.9059%
[5]
  U937 %inh: 2.265%
[6]
  CHRF288-11 %inh: 4.722%
[7]
  CMS %inh: 0.8831%
[8]
  CMK %inh: 1.313%

## Nc1nc(-c2ccc(F)cc2)c(-c2ccc3ncccc3n2)s1 [SJ000573357-1, R5931/120/1]
[1]
  MOLM-13 %inh: 3.49%
[2]
  M07e %inh: 0.3459%
[3]
  MV4-11 %inh: -0.2605%
[4]
  ML-2 %inh: -0.2788%
[5]
  U937 %inh: 3.577%
[6]
  CHRF288-11 %inh: 7.658%
[7]
  CMS %inh: 0.9588%
[8]
  CMK %inh: -0.6603%

## CCS(=O)(=O)c1ccc(OC)c(Nc2ncc(-c3cccc(OC)c3)o2)c1 [SJ000573358-1, U15747/93/1]
[1]
  MOLM-13 %inh: 73.64%
[2]
  M07e %inh: -2.224%
[3]
  MV4-11 %inh: 70.44%
[4]
  ML-2 %inh: 1.703%
[5]
  U937 %inh: 5.914%
[6]
  CHRF288-11 %inh: 1.123%
[7]
  CMS %inh: -1.141%
[8]
  CMK %inh: 8.053%

## CCCCOCCOc1nc(-c2ccc(C(=O)O)c(F)c2)sc1C [SJ000573474-2, AC 261066]
[1]
  MOLM-13 %inh: 4.751%
[2]
  M07e %inh: 1.286%
[3]
  MV4-11 %inh: 12.22%
[4]
  ML-2 %inh: 0.9412%
[5]
  U937 %inh: 6.265%
[6]
  CHRF288-11 %inh: 2.475e-05%
[7]
  CMS %inh: 12.33%
[8]
  CMK %inh: 1.422%

## CC1(C)CCC(C)(C)c2cc(C3(c4ccc5cc(C(=O)O)ccc5c4)SCCS3)ccc21 [SJ000573478-2, MM 11253]
[1]
  MOLM-13 %inh: 2.534%
[2]
  M07e %inh: 1.802%
[3]
  MV4-11 %inh: 1.741%
[4]
  ML-2 %inh: 0.2271%
[5]
  U937 %inh: 1.985%
[6]
  CHRF288-11 %inh: -4.46%
[7]
  CMS %inh: 0.01284%
[8]
  CMK %inh: -3.669%

## CCOC(=O)C1=C(N)Oc2ccc(Br)cc2[C@H]1[C@H](C#N)C(=O)OCC [SJ000574273-1, HA14-1]
[1]
  MOLM-13 %inh: 2.194%
[2]
  M07e %inh: 0.5476%
[3]
  MV4-11 %inh: 14.02%
[4]
  ML-2 %inh: -0.1514%
[5]
  U937 %inh: 6.381%
[6]
  CHRF288-11 %inh: -0.6917%
[7]
  CMS %inh: 0.956%
[8]
  CMK %inh: 4.094%

## CCCS(=O)(=O)Nc1ccc(F)c(C(=O)c2c[nH]c3ncc(-c4ccc(Cl)cc4)cc23)c1F [SJ000574274-1, VEMURAFENIB | PLX-4032 | R-7204 | RG-7204 | RO-5185426 | PLX4032 | RG7204 | VEMURAFENIB (PLX4032, RG7204)]
[1]
  MOLM-13 %inh: -2.361%
[2]
  M07e %inh: -0.8043%
[3]
  MV4-11 %inh: -4.805%
[4]
  ML-2 %inh: -0.6517%
[5]
  U937 %inh: -0.9604%
[6]
  CHRF288-11 %inh: -2.721%
[7]
  CMS %inh: 1.477%
[8]
  CMK %inh: 1.427%

## NC(=O)c1ccc(-c2nc(-c3ccc4c(c3)OCO4)c(-c3ccccn3)[nH]2)cc1 [SJ000574283-1, SB-431542 | SB431542]
[1]
  MOLM-13 %inh: 3.22%
[2]
  M07e %inh: -4.824%
[3]
  MV4-11 %inh: 0.325%
[4]
  ML-2 %inh: 0.07602%
[5]
  U937 %inh: -2.319%
[6]
  CHRF288-11 %inh: -7.63%
[7]
  CMS %inh: 0.4519%
[8]
  CMK %inh: -2.116%

## CC(C)(C)c1cnc(CSc2cnc(NC(=O)C3CCNCC3)s2)o1 [SJ000574284-1, BMS-387032 | SNS-032]
[1]
  MOLM-13 %inh: 98.7%
[2]
  M07e %inh: 111.6%
[3]
  MV4-11 %inh: 73.5%
[4]
  ML-2 %inh: 59.52%
[5]
  U937 %inh: 69.97%
[6]
  CHRF288-11 %inh: 54.06%
[7]
  CMS %inh: 97.36%
[8]
  CMK %inh: 91.14%

## Cc1cc(Nc2cc(N3CCN(C)CC3)nc(Sc3ccc(NC(=O)C4CC4)cc3)n2)n[nH]1 [SJ000574290-1, TOZASERTIB | VX-680 | MK-0457 | VX6 | VX-680 | TOZASERTIB | MK-0457 | | VX-680 (TOZASERTIB, MK-0457)]
[1]
  MOLM-13 %inh: 88.48%
[2]
  M07e %inh: 61.91%
[3]
  MV4-11 %inh: 64.96%
[4]
  ML-2 %inh: 25.05%
[5]
  U937 %inh: 19.84%
[6]
  CHRF288-11 %inh: 110.2%
[7]
  CMS %inh: 15.77%
[8]
  CMK %inh: 63.64%

## CC(=O)Nc1cccc(-n2c(=O)n(C3CC3)c(=O)c3c(Nc4ccc(I)cc4F)n(C)c(=O)c(C)c32)c1 [SJ000574293-1, TRAMETINIB | GSK-1120212B | JTP-74057 | 1120212 | GSK-1120212 | GSK1120212 | TRAMETINIB (GSK1120212)]
[1]
  MOLM-13 %inh: 39.84%
[2]
  M07e %inh: 16.11%
[3]
  MV4-11 %inh: 40.11%
[4]
  ML-2 %inh: 27.14%
[5]
  U937 %inh: 11.49%
[6]
  CHRF288-11 %inh: 30.11%
[7]
  CMS %inh: 21.59%
[8]
  CMK %inh: 4.055%
